Experiments:
Assay type in all cases: cell-based, human
[1] = test system: sPLA2-IIA secretion by LNCaP-AI cells; assay: ELISA of sPLA2-IIA secreted into culture medium of LNCaP-AI cells; settings: inhibitor ~20 μM (CI-1033 ~8 μM), about 24 hours, FIG. 7
Protocol: Finally, LNCaP-AI cells were starved in 1% stripped medium for about 24 hours. The cells were then treated with Erlotinib (˜20 μM), Gefitinib (˜20 μM), Lapatinib (˜20 μM), CI-1033 (˜8 μM), LY294002 (˜20 μM), and Bortezomib (˜20 μM) for about 24 hours. Cell culture medium was collected from each sample and subjected to ELISA for sPLA2-IIA. The condition medium samples were diluted 10 times for ELISA. The average of duplicate samples was converted to nanogram per milliliter against standard curve. The data represent one of five repeated experiments.

[2] = test system: sPLA2-IIA protein expression in LNCaP-AI cells; assay: Western blot of sPLA2-IIA protein expression in LNCaP-AI cells; settings: about 24 hours; for effect on sPLA2-IIA protein expression: basal states and EGF-induced expression, inhibitor ~20 μM (CI-1033 ~8 μM), FIGS. 2-4
Protocol: (§1) The role of sPLA2-IIA gene regulation in prostate cancer cells via the HER/HER2-PI3K-Akt-NF-κB pathway was investigated. A reporter assay was performed by transiently transfecting sPLA2-IIA(-800)-Luc (˜0.25 μg/well) reporter in LNCaP-AI cells (˜10^5 cells/well in 12-well plate). The cells were then treated with epidermal growth factor (hereinafter “EGF”) (˜100 ng/mL) without or with EGFR inhibitors Erlotinib (˜20 μM) and Gefitinib (˜20 μM), EGFR/HER2 dual inhibitors Lapatinib (˜20 μM) and CI-1033 (˜8 μM), phosphoinositide 3-kinase (hereinafter “PI3K”) inhibitor LY294002 (˜20 μM), and NF-κB inhibitor Bortezomib (˜20 μM) for about 24 hours. A luciferase assay was performed according to a standard protocol with Renilla luciferase as an internal control. Another reporter assay was performed wherein LNCaP-AI cells were starved in 1% stripped medium for about 24 hours. The cells were the treated with Erlotinib (˜20 μM), Gefitinib (˜20 μM), Lapatinib (˜20 μM), CI-1033 (˜8 μM), LY294002 (˜20 μM), Bortezomib (˜20 μM), and/or Heregulin-α (˜50 ng/mL) without or with EGF (˜100 ng/mL) for about 24 hours.
Cell extracts were then prepared and subjected to western blot analysis for sPLA2-IIA, P-Akt, Akt, and β-actin. Briefly, aliquots of samples with the same amount of protein, determined using the Bradford assay (BioRad, Hercules, Calif.), were mixed with loading buffer (final concentrations of 62.5 mM Tris-HCl, pH 6.8, 2.3% sodium dodecyl sulfate, 100 mM dithiothreitol, and 0.005% bromophenol blue), boiled, fractionated in a sodium dodecyl sulfate-polyacrylamide gel electrophoresis, and transferred onto a 0.45-μm nitrocellulose membrane (BioRad). The filters were blocked with 2% fat-free milk in PBS, and probed with primary antibody in phosphate buffered saline containing 0.1% Tween 20 (i.e., PBST) and 1% fat-free milk. The membranes were then washed four times in PBST and incubated with horseradish peroxidase-conjugated secondary antibody (BioRad) in PBST containing 1% fat-free milk. After washing four times in PBST, the membranes were visualized using the ECL Western Blotting Detection System (Amersham Co, Arlington Height, Ill.).

[3] = test system: sPLA2-IIA gene promoter; assay: sPLA2-IIA(-800)-Luc reporter (luciferase) assay in LNCaP-AI cells; settings: about 24 hours, FIG. 1; for effect on EGF-stimulated promoter activity of sPLA2-IIA gene: EGF ~100 ng/mL with inhibitor ~20 μM (CI-1033 ~8 μM)
Protocol: as §1

[4] = test system: sPLA2-IIA expression in LAPC-4 and DU145 cells; assay: Western blot of sPLA2-IIA expression in LAPC-4 and DU145 cells; settings: Lapatinib ~20 μM, via blocking PI3K-Akt signaling, FIG. 5
Protocol: A reporter assay was performed by transiently transfecting sPLA2-IIA(-800)-Luc (˜0.25 μg/well) reporter in LNCaP-AI cells (˜10^5 cells/well in 12-well plate). The cells were then treated with epidermal growth factor (hereinafter “EGF”) (˜100 ng/mL) without or with EGFR inhibitors Erlotinib (˜20 μM) and Gefitinib (˜20 μM), EGFR/HER2 dual inhibitors Lapatinib (˜20 μM) and CI-1033 (˜8 μM), phosphoinositide 3-kinase (hereinafter “PI3K”) inhibitor LY294002 (˜20 μM), and NF-κB inhibitor Bortezomib (˜20 μM) for about 24 hours. A luciferase assay was performed according to a standard protocol with Renilla luciferase as an internal control. Another reporter assay was performed wherein LNCaP-AI cells were starved in 1% stripped medium for about 24 hours. […] Briefly, aliquots of samples with the same amount of protein, determined using the Bradford assay (BioRad, Hercules, Calif.), were mixed with loading buffer (final concentrations of 62.5 mM Tris-HCl, pH 6.8, 2.3% sodium dodecyl sulfate, 100 mM dithiothreitol, and 0.005% bromophenol blue), boiled, fractionated in a sodium dodecyl sulfate-polyacrylamide gel electrophoresis, and transferred onto a 0.45-μm nitrocellulose membrane (BioRad). […]

Compound | effect on sPLA2-IIA secretion (ELISA of culture medium) [1] | effect on sPLA2-IIA protein expression [2] | effect on EGF-stimulated promoter activity of sPLA2-IIA gene [3] | effect on sPLA2-IIA expression in LAPC-4 and DU145 cells [4] | sPLA2-IIA expression (western blot), stimulation by EGF ([2]; EGF ~100 ng/mL, FIGS. 2 and 3) | promoter activity of sPLA2-IIA gene ([3]; EGF ~100 ng/mL)
CC(C)C[C@H](NC(=O)[C@H](Cc1ccccc1)NC(=O)c1cnccn1)B(O)O [Bortezomib] | significantly inhibited | dramatically downregulated | blocked | – | – | –
C=CC(=O)Nc1cc2c(Nc3ccc(F)c(Cl)c3)ncnc2cc1OCCCN1CCOCC1 [CI-1033] | moderate effect | moderate impact | blocked | – | – | –
C#Cc1cccc(Nc2ncnc3cc(OCCOC)c(OCCOC)cc23)c1 [Erlotinib] | moderate effect | moderate impact | blocked | – | – | –
COc1cc2ncnc(Nc3ccc(F)c(Cl)c3)c2cc1OCCCN1CCOCC1 [Gefitinib] | moderate effect | moderate impact | blocked | – | – | –
CS(=O)(=O)CCNCc1ccc(-c2ccc3ncnc(Nc4ccc(OCc5cccc(F)c5)c(Cl)c4)c3c2)o1 [Lapatinib] | significantly inhibited | dramatically downregulated | blocked | inhibited | – | –
EGF: epidermal growth factor | – | – | – | – | stimulated sPLA2-IIA expression | significantly stimulated

— patent US20130095503A1, “SERUM SPLA2-IIA AS DIAGNOSIS MARKER FOR PROSTATE AND LUNG CANCER” (UNIVERSITY OF CINCINNATI, priority 2010, published 2013)
